Experimental data as given in ChEMBL document CHEMBL1201862, “PubChem BioAssay data set” (2004).
Each block holds one molecule with its values, some of them ahead of it. Activity calls are given as the source filed them. Rule as the data show it, for most assays here: actives have a measured EC50 and inactives only a lower limit.

Key:
[1] = target: Serine/threonine-protein phosphatase (Candida dubliniensis (strain CD36 / CBS 7987 / NCPF 3949 / NRRLY-17841) (Yeast), UniProt B9W6M3); experiment: calcineurin pathway inhibitors in yeast reporter, dose response, S. cerevisiae, CDRE-lacZ, luminescence, secondary (AID 2388); format: functional, cell-based;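 also: yeast reporter cells carrying a calcineurin-responsive lacZ construct stimulated with calcium chloride; luminescent beta-galactosidase reporter signal in whole cells rather than isolated phosphatase activity; potency for inhibition where a drop in reporter signal means calcineurin blockade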
Chain of Serine/threonine-protein phosphatase (B9W6M3 whole entry): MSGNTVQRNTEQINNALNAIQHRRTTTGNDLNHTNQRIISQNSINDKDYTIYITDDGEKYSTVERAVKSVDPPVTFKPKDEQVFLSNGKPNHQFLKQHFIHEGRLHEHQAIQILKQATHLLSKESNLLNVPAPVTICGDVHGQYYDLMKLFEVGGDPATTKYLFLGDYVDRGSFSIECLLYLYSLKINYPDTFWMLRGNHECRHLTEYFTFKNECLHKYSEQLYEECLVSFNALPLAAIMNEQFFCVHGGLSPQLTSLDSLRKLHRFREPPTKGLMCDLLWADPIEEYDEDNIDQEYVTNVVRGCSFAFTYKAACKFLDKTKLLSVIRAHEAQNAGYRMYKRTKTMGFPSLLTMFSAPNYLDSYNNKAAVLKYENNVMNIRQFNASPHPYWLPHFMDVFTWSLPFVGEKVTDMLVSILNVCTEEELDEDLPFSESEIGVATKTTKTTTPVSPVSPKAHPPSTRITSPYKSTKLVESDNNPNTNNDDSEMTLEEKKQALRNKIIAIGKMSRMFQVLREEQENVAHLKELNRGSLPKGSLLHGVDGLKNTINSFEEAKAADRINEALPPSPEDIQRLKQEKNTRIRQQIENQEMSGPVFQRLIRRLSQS

Hexokinase-1 = target: T1, Hexokinase-1 (Homo sapiens, UniProt P19367); experiment: hexokinase 1 activators, dose response, selectivity assay for HKDC1 activator project, biochemical (AID 504762); format: functional
T1 sequence (P19367 whole entry): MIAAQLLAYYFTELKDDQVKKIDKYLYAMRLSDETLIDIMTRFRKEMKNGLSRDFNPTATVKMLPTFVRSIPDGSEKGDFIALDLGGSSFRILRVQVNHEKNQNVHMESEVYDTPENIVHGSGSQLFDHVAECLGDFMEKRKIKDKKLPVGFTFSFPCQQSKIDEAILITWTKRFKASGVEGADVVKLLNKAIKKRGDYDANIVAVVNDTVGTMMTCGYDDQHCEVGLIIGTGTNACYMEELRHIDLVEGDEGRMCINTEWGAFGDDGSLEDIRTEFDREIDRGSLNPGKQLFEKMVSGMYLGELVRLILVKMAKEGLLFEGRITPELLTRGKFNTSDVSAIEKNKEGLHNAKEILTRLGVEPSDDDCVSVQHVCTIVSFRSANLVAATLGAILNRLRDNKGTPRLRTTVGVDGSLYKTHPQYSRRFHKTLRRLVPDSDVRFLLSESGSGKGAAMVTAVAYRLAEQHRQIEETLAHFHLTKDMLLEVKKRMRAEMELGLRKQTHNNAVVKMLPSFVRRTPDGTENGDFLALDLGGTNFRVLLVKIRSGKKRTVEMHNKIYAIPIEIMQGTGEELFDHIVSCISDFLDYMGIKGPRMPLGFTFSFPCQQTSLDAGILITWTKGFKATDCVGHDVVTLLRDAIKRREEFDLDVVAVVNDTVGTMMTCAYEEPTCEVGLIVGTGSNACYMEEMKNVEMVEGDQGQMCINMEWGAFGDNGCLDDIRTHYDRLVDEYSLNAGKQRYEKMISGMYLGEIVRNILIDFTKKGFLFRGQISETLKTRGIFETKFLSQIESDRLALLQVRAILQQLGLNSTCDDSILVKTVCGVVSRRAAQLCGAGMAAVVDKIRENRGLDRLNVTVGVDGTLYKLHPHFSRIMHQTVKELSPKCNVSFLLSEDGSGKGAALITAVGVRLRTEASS

[2] = cytotoxicity toward NIH3T3 fibroblasts, dose response, counter-screen, cell-based, ATP luminescence, mouse fibroblasts (AID 2010); format: functional;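 also: cells exposed to compound for about 90 hours before reading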
[3] = inhibitors of intracellular T. cruzi replication, confirmation, NIH3T3 host cells, beta-gal luminescence (AID 2044); format: functional, cell-based;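 also: intracellular parasites grown in NIH/3T3 mouse fibroblasts as host cells; luminescent beta-galactosidase reporter signal from transgenic T. cruzi replicating inside host cells; inhibitors lower the luminescence signal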
[4] = target: T2, Rac GTPase-activating protein 1 (Homo sapiens, UniProt Q9H0H5); experiment: MgcRacGAP GTPase-activating activity inhibitors, confirmation, biochemical, ADP Hunter fluorescence, primary and confirmatory (AID 624330); format: functional
T2 sequence (Q9H0H5 whole entry): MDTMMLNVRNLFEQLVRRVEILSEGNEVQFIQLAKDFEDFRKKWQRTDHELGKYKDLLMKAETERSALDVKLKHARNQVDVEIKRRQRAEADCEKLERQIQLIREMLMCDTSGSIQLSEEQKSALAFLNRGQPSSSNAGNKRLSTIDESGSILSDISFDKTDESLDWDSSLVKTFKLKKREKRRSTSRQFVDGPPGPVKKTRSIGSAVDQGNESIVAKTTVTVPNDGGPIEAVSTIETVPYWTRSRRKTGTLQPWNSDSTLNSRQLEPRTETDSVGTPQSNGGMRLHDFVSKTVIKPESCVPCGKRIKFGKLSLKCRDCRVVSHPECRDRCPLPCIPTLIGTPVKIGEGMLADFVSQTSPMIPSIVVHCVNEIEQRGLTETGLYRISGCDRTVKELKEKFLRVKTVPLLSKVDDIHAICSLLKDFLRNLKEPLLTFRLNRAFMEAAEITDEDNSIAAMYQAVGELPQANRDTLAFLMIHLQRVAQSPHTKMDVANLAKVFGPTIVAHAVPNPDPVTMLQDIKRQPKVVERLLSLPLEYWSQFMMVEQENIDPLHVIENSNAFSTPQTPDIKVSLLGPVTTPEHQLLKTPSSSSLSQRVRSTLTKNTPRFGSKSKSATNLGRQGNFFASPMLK

SMILES: COc1ccc(C(NC(=O)C(C)C)c2ccc3cccnc3c2O)cc1 (stereo not given)
- EC50 [1]: > 180 µM (inactive)

SMILES: SC1=Nc2ccccc2C1
- EC50 (Hexokinase-1): 19.3 µM (active)
- EC50 [2]: 15.8 µM (active)
- EC50 [3]: 0.487 µM (active)

- IC50 [4]: 39.5 µM (active)
SMILES: CCCCNc1cc(NC(C)=O)cc2cc(OC)c(OC)cc12
